Results taken from patent US20160262894A1, “TISSUE REPAIR DEVICES AND SCAFFOLDS” (priority 2013, published 2016).

Experiments:
[1] = tested on: adenosine A2A knockout (A2AKO) mice; test: in vivo bone formation by MicroCT in adenosine A2A knockout (A2AKO) mice, coated βTCP-HA scaffolds; conditions: 4 weeks post-surgery, CGS21680 10 mM
Description: The remaining scaffold is shown in blue, and the new bone formation is shown in red.

[2] = tested on: 3 mm calvaria defect; conditions: application at the site of the bone defect
Description: In vivo testing in mice: The 3-D scaffolds will be evaluated in a murine model using a 3 mm calvaria defect model.

[3] = tested on: 3 mm calvaria defect; conditions: murine model of calvarial bone regeneration; background statement; cited from earlier work

SMILES: CCNC(=O)[C@H]1O[C@@H](n2cnc3c(N)nc(NCCc4ccc(CCC(=O)O)cc4)nc32)[C@H](O)[C@@H]1O [CGS21680]
- resorption of scaffolds ([1]; compared with dipyridamole-coated scaffolds): greater

SMILES: OCCN(CCO)c1nc(N2CCCCC2)c2nc(N(CCO)CCO)nc(N3CCCCC3)c2n1 [dipyridamole]
- new bone formation ([1]; collagen-coated βTCP-HA scaffolds, Dipyridamole 100 μM): did not differ from that induced in saline- or CGS21680-coated surfaces
- new bone growth at the site of a bone defect [2]: promotes new bone growth
- bone regeneration [3]: exponentially stimulates bone regeneration
